Results as given in patent publication US6184246A, “Inhibition of cytokine production by polymethoxylated flavones” (priority 1999, dated 2001).
Like-named read-outs stand apart in the source and are kept apart here.

Assays:
[1] = system: TNFα; assay: TNFα production by LPS-stimulated human monocytes (ELISA); format: cell-based; settings: for inhibition of TNFα production (in words): LPS-stimulated human monocytes; for IC50: read-out: IC50 for inhibition of TNFα production
Method: Isolation of human peripheral blood monocytes: Peripheral blood mononuclear cells (PBMCs) were isolated from residual source leukocytes (Bonfils Blood Center, CO) by density gradient centrifugation using Ficoll-Paque Plus (Pharmacia, Sweden).
(§1) To measure the impact of the flavones on cytokine production, PBMCs were resuspended to 4×10^6 /mL in complete medium, i.e., Dulbecco's Modified Eagle Medium containing 30% FCS, 2 mM glutamine, 100 U/mL Penicillin-G, and 100 μg/mL streptomycin. […] Nonadherent cells (lymphocytes) were separated from the plastic adherent cells (monocytes) by washing the wells twice with 200 μL of medium. The monocytes were cultured an additional 30 min in 100 μL of complete medium containing graded concentrations of the compound of interest and the cultures were then adjusted to contain […] LPS to stimulate cytokine production. Culture supernatants were harvested 14 h later, and cells were lysed by addition of 50 μL of Dulbecco's phosphate buffered saline containing 1% NP40. Culture supernatants were evaluated for TNFα, IL-1β, IL-6, IL-8, IL-10, and MIP-1α content using specific enzyme-linked immunosorbent assays (ELISA) purchased from R&D Systems. IL-1β was measured in cell lysates by ELISA. Lactate dehydrogenase (LDH) content of cell lysates was measured to determine compound effects on cell viability: To 50 μL of lysate were added 200 μL of 50 mM sodium pyrophosphate buffer (pH 8.9) containing 50 mM lactic acid and 4 mg/mL β-nicotinamide adenine dinucleotide (Sigma); rates of reduction of nicotinamide adenine dinucleotide were measured at room temperature at 340 nm.

[2] = system: human monocytes; assay: Cytotoxicity by LDH content of monocyte lysates
Method: as §1

[3] = system: IL-10; assay: IL-10 production by LPS-stimulated human monocytes (ELISA); format: cell-based; settings: LPS-stimulated human monocytes
Method: (§2) Adherent purified human monocytes were cultured in the presence of graded concentrations of heptamethoxyflavone for 30 min. The monocyte cultures were then adjusted to contain 20 ng/mL LPS. After 14 h of culture, the cytokines TNFα, IL-6, IL-8, MIP-1α, and IL-10 were assayed in the culture supernatants and IL-1β was assayed in the cell lysates using specific ELISA assays as described below. Values expressed as the percent of cytokine produced in flavone-free cultures are the means and standard errors determined using monocytes isolated from three independent donors.
(§3) Isolation of human peripheral blood monocytes: Peripheral blood mononuclear cells (PBMCs) were isolated from residual source leukocytes (Bonfils Blood Center, CO) by density gradient centrifugation using Ficoll-Paque Plus (Pharmacia, Sweden). Monocytes were purified further by plastic adherence (see below) or by centrifugal elutriation as described previously (Manthey, C. L., et al., J. Leuk Biol., 64: 409-416 (1998)).
(§4) IL-1β was measured in cell lysates by ELISA.

[4] = system: IL-6; assay: IL-6 production by LPS-stimulated human monocytes (ELISA); format: cell-based; settings: cytokine suppression profile, HMF compared against IBMX (Table 2)
Method: as §2, §3, §4

[5] = system: intracellular cAMP; assay: Cellular cAMP in human monocytes (EIA); format: cell-based; settings: 30 min; for intracellular cAMP level: media alone 2.7±0.9
Method: To test flavones for the ability to cause an increase in cellular cAMP, monocytes were purified from PBMC by centrifugal elutriation. Monocytes were resuspended to 5×10^6 /mL in complete medium and 2 mL cell suspension were dispensed into FALCON 17×100 mm polypropylene culture tubes (Becton Dickinson). The cells were precultured 2 h at 37° C. and 5% CO2, and then cultured an additional 30 min following adjusting culture media to contain 100 μM of the flavone of interest or 200 μM IBMX (3-isobutyl-1-methylxanthine). Cells were then collected by centrifugation, lysed in 300 μL of ice cold aqueous solution containing 10 mM HEPES (pH 7.6) and 1% NP40. The lysates were applied to 100 mg columns of Amprep SAX resin (Amersham). The columns were then rinsed with 1 mL of methanol and the cAMP was eluted in 600 μL of methanol containing 0.01 M HCl. The eluates were chilled on dry ice and dried under vacuum. The Amersham Biotrak cAMP EIA assay was used to measure cAMP content of residues resuspended in 400 μL of assay buffer.

[6] = system: IL-8; assay: IL-8 production by LPS-stimulated human monocytes (ELISA); format: cell-based; settings: cytokine suppression profile, HMF compared against IBMX (Table 2)
Method: as §2, §3, §4

[7] = system: IL-1β; assay: IL-1β production by LPS-stimulated human monocytes (ELISA, cell lysates); format: cell-based; settings: cytokine suppression profile, HMF compared against IBMX (Table 2)
Method: as §2, §3, §4

[8] = system: type-IV phosphodiesterase semi-purified from U937 cells; assay: Phosphodiesterase cAMP SPA enzyme assay; format: biochemical; settings: hydrolysis of cAMP; read-out: concentration inhibiting phosphodiesterase activity 50%
Method: PDE semipurified from U937 monocytic cells was evaluated for the ability to catalyze the hydrolysis of cAMP in the presence of graded concentrations of flavone, myricetin, and HMF as described below. The rates are plotted as percent of control-reactions, where no flavonoids were present. Testing flavones as phosphodiesterase inhibitors and inducers of cellular cyclic adenosine monophosphate (cAMP): The Phosphodiesterase cAMP SPA Enzyme Assay (Amersham, Arlington Heights, Ill.) was used to test the ability of flavones to inhibit cAMP hydrolysis catalyzed by phosphodiesterase. The phosphodiesterase used in this study was semi-purified from U937 cells, and was determined to be mostly the type-IV isoform based on sensitivity to selected isoform inhibitors (Trophy, T. J., J. Pharmacol. Experimental Therapeutics, 1195-1205 (1992)).

[9] = human monocytes, LDH content of cell lysates
[10] = Monocyte, human monocytes, 30 min preculture with compound, LPS, 14 h, 30% FCS
[11] = human monocytes, 30 min preculture with compound, LPS, 14 h, 30% FCS

Compound | inhibition of TNFα production (in words) [1] | cytotoxicity towards cultured human monocytes (depletion of cellular LDH activity) [2] | cytotoxicity towards cultured human monocytes (depletion of cellular LDH activity) [2, 9] | further results
O=c1c(O)c(-c2ccc(O)cc2)oc2cc(O)ccc12 [3,4,7-trihydroxyflavone] | lacked activity | lacked activity and any associated cytotoxicity | – | –
O=c1c(O)c(-c2ccccc2)oc2ccccc12 [3-hydroxyflavone] | lacked activity | lacked activity and any associated cytotoxicity | – | –
O=c1cc(-c2ccc(O)cc2)oc2ccc(O)c(O)c12 [4,5,6-trihydroxyflavone] | lacked activity | lacked activity and any associated cytotoxicity | – | –
O=c1cc(-c2ccccc2)oc2cc(O)ccc12 [7-hydroxyflavone] | lacked activity | – | lacked activity and any associated cytotoxicity | –
CC(C)Cn1c(=O)n(C)c(=O)c2[nH]cnc21 [IBMX, 3-isobutyl-1-methylxanthine] | – | – | – | inhibition of IL-10 production (in words) [3]: did not inhibit; suppression of IL-6 production [4]: neither suppressed; increase of monocyte cAMP levels over media alone (in words) ([5]; 200 μM): at least a doubling; intracellular cAMP level ([5]; 200 μM): 8.3±1.9 pmol/10^7 cells; suppression of IL-8 production [6]: neither suppressed; suppression of IL-1β production [7]: neither suppressed
O=c1cc(-c2ccccc2)oc2cc(O)c(O)c(O)c12 [baicalein] | lacked activity | lacked activity and any associated cytotoxicity | – | –
Oc1cc(O)c2c(c1)OC(c1ccc(O)c(O)c1)C(O)C2 (centres unmarked) [catechin] | lacked activity | – | lacked activity and any associated cytotoxicity | –
O=c1cc(-c2ccccc2)oc2cc(O)cc(O)c12 [chrysin] | lacked activity | – | lacked activity and any associated cytotoxicity | –
COc1ccc(-c2cc(=O)c3c(O)cc(O[C@@H]4O[C@H](CO[C@@H]5O[C@@H](C)[C@H](O)[C@@H](O)[C@H]5O)[C@@H](O)[C@H](O)[C@H]4O)cc3o2)cc1O [diosmin] | – | – | no cytotoxicity | IC50 [1, 10]: > 200 µM
Oc1cc(O)c2c(c1)O[C@H](c1ccc(O)c(O)c1)[C@H](O)C2 [epicatechin] | lacked activity | lacked activity and any associated cytotoxicity | – | –
O=C1C[C@@H](c2ccc(O)c(O)c2)Oc2cc(O)cc(O)c21 [eriodictyol] | lacked activity | lacked activity and any associated cytotoxicity | – | –
O=c1c(O)c(-c2ccc(O)c(O)c2)oc2cc(O)ccc12 [fisetin] | lacked activity | – | lacked activity and any associated cytotoxicity | –
O=C1CC(c2ccccc2)Oc2ccccc21 (centres unmarked) [flavanone] | lacked activity | – | lacked activity and any associated cytotoxicity | –
O=c1cc(-c2ccccc2)oc2ccccc12 [flavone] | much less active | – | – | IC50 [8]: 11 µM; increase of monocyte cAMP levels over media alone (in words) ([5]; 100 μM): much less; intracellular cAMP level ([5]; 100 μM): 3.6±1.1 pmol/10^7 cells
O=c1c(O)c(-c2ccccc2)oc2cc(O)cc(O)c12 [galagin] | lacked activity | – | lacked activity and any associated cytotoxicity | –
O=c1c(O)c(-c2ccc(O)c(O)c2)oc2c(O)c(O)cc(O)c12 [gossypetin] | lacked activity | – | lacked activity and any associated cytotoxicity | –
COc1ccc([C@@H]2CC(=O)c3c(O)cc(O)cc3O2)cc1O [hesperetin] | lacked activity | lacked activity and any associated cytotoxicity | – | –
COc1ccc([C@@H]2CC(=O)c3c(O)cc(O[C@@H]4O[C@H](CO[C@@H]5O[C@@H](C)[C@H](O)[C@@H](O)[C@H]5O)[C@@H](O)[C@H](O)[C@H]4O)cc3O2)cc1O [hesperidin] | – | no cytotoxicity | – | IC50 ([1]; Homo sapiens, Monocyte): > 200 µM
O=c1cc(-c2ccc(O)cc2)oc2cc(O)c([C@@H]3O[C@H](CO)[C@@H](O)[C@H](O)[C@H]3O)c(O)c12 [isovitexin] | – | no cytotoxicity | – | IC50 [1, 10]: > 200 µM
C[C@@H]1O[C@@H](OC[C@H]2O[C@@H](Oc3cc(O)c4c(c3)O[C@H](c3ccc(O)cc3)CC4=O)[C@H](O)[C@@H](O)[C@@H]2O)[C@H](O)[C@H](O)[C@H]1O [narirutin] | – | no cytotoxicity | – | IC50 [1, 10]: > 200 µM
CC1OC(OCC2OC(Oc3c(-c4ccc(O)cc4)oc4cc(OC5OC(C)C(O)C(O)C5O)cc(O)c4c3=O)C(O)C(O)C2O)C(O)C(O)C1O (centres unmarked) [robinin] | lacked activity | – | lacked activity and any associated cytotoxicity | –
COc1ccc(-c2cc(=O)c3c(OC)c(OC)c(OC)cc3o2)cc1 [tetra-O-methylscutellarein] | – | – | exception | –
isomargaretin | – | no cytotoxicity | – | IC50 [1, 11]: > 200 µM
margaretin | – | no cytotoxicity | – | IC50 [1, 11]: > 200 µM
